Reference: patent publication EP1166784B1, “INHIBITION OF VASCULAR RESTENOSIS AFTER ANGIOPLASTY” (Meiji Seika Kaisha, Ltd., priority 1999, dated 2000)

Tests used:
[1] = test system: balloon-injured site of the abdominal aorta blood vessel; assay: PDT treatment in rabbit model with arterial injury (balloon catheter), pathological study (Example 1); type: in vivo; details: 2.5 mg/kg i.v., laser 664 nm, 50 or 100 J/cm^2, optical fiber in inflated 2F balloon catheter
Experimental: Mono-L-aspartylchlorin e6 tetrasodium salt (NPe6) was intravenously administered at a dose of 2.5 mg/kg to a rabbit weighing about 4 kg. A commercially available 2F balloon catheter was immediately then inserted through the femoral artery into the abdominal aorta of rabbit. Thereafter, there are repeated operations of drawing out from the blood vessel the balloon catheter with the inflated balloon, inserting the balloon catheter again into the blood vessel, and drawing out the balloon catheter with the inflated balloon, whereby a rabbit model with an arterial injury was produced. This method for producing the rabbit model having the arterial injury at the blood vessel inner wall was in accordance with the method of Hsiang et al. (see Ann. Vasc. Surg., Vol.9, p.80-86, 1995). At the end of 3 hours after the administration of NPe6, an optical fiber for irradiation of laser (made of an acrylic polymer filament having an external diameter of 0.5 mm and provided with the emitter part of 15mm in length) was inserted into the hollow hole of the 2F balloon catheter which had been inserted in and kept remained at the balloon-injured site of the abdominal aorta blood vessel. The balloon of the catheter was then inflated. Laser light of 664 nm wavelength was passed into and transmitted through the optical fiber to make the laser light to irradiate the abdominal artery at the balloon-injured site, and thereby to carry out the PDT treatment of said site at a laser fluence of 50 or 100 J/cm^2. The laser (of the wavelength of 664 nm) used was emitted from a laser-generating source of semi-conductor type known for PDT. At the respective ends of four days, two weeks and four weeks after the above PDT treatment so made, the site having received the PDT treatment was pathologically studied.

[2] = test system: intimal thickening induced at the balloon-intervented and injured site of blood vessel; assay: Suppressive effect of PDT treatment on intimal thickening in rabbit model with arterial injury, image analysis of neo-intima and tunica media areas (Example 2); type: in vivo; details: 2.5 mg/kg i.v., laser 664 nm 3 hours after administration, two weeks after PDT; for Inhibition rate (%): versus untreated group
Experimental: Mono-L-aspartylchlorin e6 tetrasodium salt was intravenously administered at a dose of 2.5 mg/kg to three rabbits each weighing about 4 kg. […] The neo-intima (9) had newly been produced from the inner side of the tunica media (8) due to the injury as induced by the balloon-intervention. At the end of three hours after the administration of mono-L-aspartylchlorin e6 tetrasodium salt, a device comprising an optical fiber for the irradiation of laser was inserted in the blood vessel of rabbit having the intimal thickening, to arrive at the balloon-injured site of the blood vessel. In order to estimate in comparison the achievable suppressive effects of the PDT treatments against the vascular restenosis, the above test procedures were conducted with employing two different types of the laser-irradiating devices comprising the optical fiber for the irradiation of laser, a first one type of which two different devices was such a laser-irradiating device that comprised an optical fiber as integrated with a balloon catheter and that is shown in Figure 1 of the appended drawing. The other type of the laser-irradiating device employed was comprising simply the conventional type of cylindrical optical fiber. In the tests, either one of these two different types of the laser-irradiating devices containing an optical fiber was inserted into the abdominal aorta under test. Under roentgenoscopy, an X-ray-shielding marker which had been provided in the laser-irradiating optical fiber so inserted was observed as a guide. This guide was used so that the position of the optical fiber device as inserted could be adjusted so as to be located in a position optimal to make the laser to irradiate selectively just the balloon-injured site of the abdominal aorta under test. Then, the irradiation of the laser through said optical fiber was carried out at a laser fluence of 50 or 100 J/cm^2 by means of a semiconductor generator for generating the laser of a wavelength of 664 nm. […] From the photographies of showing the traverse cross-section of histopathologically stained test specimens as collected from the above PDT-treated site of the blood vessel, the area of the tunica media and the area of the neo-intima of the test specimens of the blood vessel under test were measured by an image analyzer. The ratio of the area of the tunica media to the area of the neo-intima of the blood vessel specimens was calculated. […]

[3] = conventional type of cylindrical optical fiber device, 100 J/cm^2
[4] = optical fiber device integrated with the balloon catheter, 50 J/cm^2

C=Cc1c(C)c2cc3nc(c(CC(=O)N[C@@H](CC(=O)[O-])C(=O)[O-])c4[nH]c(cc5nc(cc1[nH]2)C(C)=C5CC)c(C)c4C(=O)[O-])[C@@H](CCC(=O)[O-])[C@@H]3C.[Na+].[Na+].[Na+].[Na+] [NPe6, Mono-L-aspartylchlorin e6 tetrasodium salt]
injuries in the regions of the blood vessel participating in the entire construction of the blood vessel (pathological findings) ([1]; 2 and 4 weeks after PDT): no injuries were developed
intimal thickening as produced by the vascular neo-intima formed at the PDT-treated site (pathological findings) ([1]; 2 and 4 weeks after PDT): inhibited
cells of the tunica media of the blood vessel at the PDT-treated site (pathological findings) ([1]; four days after PDT): destroyed in a broad region of ranging from the inner wall side towards the outer wall side of the blood vessel
Ratio of area of neointima to area of tunica media in blood vessel [2, 3]: 0.87±0.37
Inhibition rate (%) [2, 3]: 28.7%
Ratio of area of neointima to area of tunica media in blood vessel [2, 4]: 0.68±0.21
Inhibition rate (%) [2, 4]: 44.3%
